Assay results: patent US6376510B1, “Neuromuscular relaxants” (Newlaxant LLC, priority 1997, dated 2002)
Where two headings read alike, the source gives them in different places.

What was measured:
[1] = test system: anesthetized juvenile pigs; test: animal or person; type: in vivo; conditions: pig; for ED50: intravenous dose causing 50% neuromuscular block; for RI (recovery index): spontaneous recovery, 25-75% neuromuscular response; for Onset: time to 80-85% neuromuscular block
Method in brief: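 Electromyographic and mechanomyographic responses quantified. Monkeys sedated with intramuscular ketamine, then general anesthesia with intravenous pentobarbital and propofol; juvenile pigs induced with inhaled halothane.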

[2] = test system: anesthetized rats (evoked responses of anterior tibial muscle); test: In vivo neuromuscular block and cardiovascular side effects, anesthetized rat (Example 8, Table 3); conditions: for RI (recovery index): spontaneous recovery, 25-75% neuromuscular response; for Onset: time to 80-85% neuromuscular block
Method in brief: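 Pentobarbital-anesthetized (i.p.), ventilated adult male rats given saline-dissolved agents i.v.; anterior tibial EMG responses to supramaximal single or train-of-four sciatic/peroneal stimuli, plus 0.1 or 1 Hz stimulation. Doses for 50%, 80%, 90% block derived. Onset: minutes to 80-85% block; RI: 25-75% spontaneous recovery; vagal block, heart rate and blood pressure changes (%) at 80-85% blocking dose.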

anesthetized monkeys = test: In vivo neuromuscular block and cardiovascular side effects, monkey (Example 8, Table 6); conditions: for ED50: intravenous dose causing 50% neuromuscular block; for RI (recovery index): spontaneous recovery, 25-75% neuromuscular response; for Onset: time to 80-85% neuromuscular block
Excerpt: Both electromyographic and mechanomyographic responses can be quantified.
The techniques described under a) and b) were employed in other species as needed with the modification that juvenile pigs were initially anesthetized with inhalation of halothane (Table 5) and monkeys were initially sedated with intramuscular ketamine injections prior to inducing and maintaining general anesthesia using pentobarbital and propofol administered intravenously (Table 6).

dogs = test: animal or person; type: in vivo; conditions: dog; for ED50: intravenous dose causing 50% neuromuscular block; for RI (recovery index): spontaneous recovery, 25-75% neuromuscular response; for Onset: time to 80-85% neuromuscular block
rabbits = test: In vivo neuromuscular block and cardiovascular side effects, rabbit (Example 8, Table 7); conditions: for ED50: intravenous dose causing 50% neuromuscular block; for RI (recovery index): spontaneous recovery, 25-75% neuromuscular response; for Onset: time to 80-85% neuromuscular block
[3] = test system: anesthetized cats (evoked responses of anterior tibial muscle); test: animal or person; conditions: for RI (recovery index): spontaneous recovery, 25-75% neuromuscular response; for Onset: time to 80-85% neuromuscular block
Excerpt: a) Adult, male albino rats were anesthetized with pentobarbital injected intraperitoneally. The trachea was cannulated for artificial respiration via a small animal respirator. The carotid artery was cannulated for recording blood pressure via a transducer and heart rate by a cardiotachograph on a polygraph. One external jugular vein was cannulated for i.v. drug administration. Neuromuscular function was monitored by electromyography, recording evoked responses from the anterior tibial muscle as a result of supramaximal nerve stimuli consisting of single or “train-of-four” rectangular pulses of 0.1-0.2 msec duration every 10-12 seconds, delivered to the sciatic or common peroneal nerve by a laboratory nerve stimulator. Another mode of stimulation included repeated single stimuli delivered at 0.1 Hz or 1 Hz. […] The agents were dissolved in physiologic saline and injected intravenously at appropriate time intervals. The intensity, onset, and duration of neuromuscular block and its type were determined with each agent. Through administering several doses, the doses corresponding to 50%, 80% and 90% neuromuscular block were determined. All agents were compared with selected standard neuromuscular blocking compounds, e.g. succinylcholine, pancuronium, mivacurium, or rocuronium.
(§1) Onset=time in minutes to 80-85% neuromuscular block.
(§2) RI=recovery index, minutes, spontaneous recovery, 25-75% neuromuscular response.
(§3) VB=vagal block, %, at 80-85% neuromuscular blocking dose.
ΔHR=change in heart rate, %, at 80-85% neuromuscular blocking dose.
ΔBP=change in arterial blood pressure, %, at 80-85% neuromuscular blocking dose.
b) Adult cats were anesthetized with a mixture of 70 mg/kg alpha chloralose and 0.5 g/kg ethylurethane intraperitoneally. One thigh was fixed in a vertical position by means of a pin at the lower end of the femur. Needle electrodes were placed on the sciatic or the common peroneal nerve. A tendon of the anterior tibial muscle was attached to a force transducer and the muscle responses evoked, as described under a), were recorded. Both electromyographic and mechanomyographic responses can be quantified. Blood pressure and heart rate changes were recorded from appropriately cannulated arteries via a blood pressure transducer and cardiotachograph.

[4] = test system: anesthetized rats (evoked responses of anterior tibial muscle); test: Muscle relaxant (neuromuscular blocking) properties, anesthetized rat (Example 9, Table 9); conditions: rat; for % VB at ED80 nmb (vagal block) / BP (change in arterial blood pressure) / HR (change in heart rate): in vivo; for ED50: intravenous dose causing 50% neuromuscular block, spread in brackets; for RI (recovery index): spontaneous recovery, 25-75% neuromuscular response; for Onset: time to 80-85% neuromuscular block
Excerpt: The data on muscle relaxant action were obtained on anesthetized rats, and when indicated, also on juvenile pigs
Adult, male albino rats were anesthetized with pentobarbital injected intraperitoneally. Juvenile, Duroc pigs 9-12 kg body weight were anesthetized with Chloralose Nembutal sodium mixture intraperitoneally after deep sedation with inhaled halothane. The trachea was cannulated for artificial respiration via a small animal respirator. The carotid artery was cannulated for recording blood pressure via a transducer and heart rate by a cardiotachograph on a polygraph. One external jugular vein was cannulated for i.v. drug administration. Neuromuscular function was monitored by electromyography, recording evoked responses from the anterior tibial muscle as a result of supramaximal nerve stimuli consisting of single or “train-of-four” rectangular pulses of 0.1-0.2 msec duration every 10-12 seconds, delivered to the sciatic or common peroneal nerve by a laboratory nerve stimulator. Another mode of stimulation included repeated single stimuli delivered at 0.1 Hz or 1 Hz. […] The agents were dissolved in physiologic saline and injected intravenously at appropriate time intervals. The intensity, onset, and duration of neuromuscular block and its type were determined with each agent. Through administering several doses, the doses corresponding to 50%, 80% and 90% neuromuscular block were determined. All agents were compared with selected standard neuromuscular blocking compounds, e.g., rocuronium.
as §1, §2, §3
HR=change in heart rate, %, at 80-85% neuromuscular blocking dose.
BP=change in arterial blood pressure, %, at 80-85% neuromuscular blocking dose.

[5] = at 80-85% neuromuscular blocking dose
[6] = rat, at 80-85% neuromuscular blocking dose
[7] = Canis lupus familiaris, read-out: ED50
[8] = Oryctolagus cuniculus, read-out: ED50
[9] = cat, at 80-85% neuromuscular blocking dose

CC(=O)Oc1ccc(C[N+]2(C)C3CCCC2CC(OC(=O)C2CCC2C(=O)OC2CC4CCCC(C2)[N+]4(C)Cc2ccc(OC(C)=O)c(OC(C)=O)c2)C3)cc1OC(C)=O.[Br-].[Br-] (centres unmarked) [bis[N-(3,4-diacetoxybenzyl)granataninium-3-yl]cyclobutane-1,2-dicarboxylate dibromide]
VB (vagal block) ([1]; in vivo): 15%
ΔBP (change in arterial blood pressure) ([1]; in vivo): 0%
ΔH (change in heart rate) ([1]; in vivo): 0%
ED50 [1]: 0.1 mg/kg
RI (recovery index) [1]: 1 min
Onset [1]: 0.8 min
VB (vagal block) ([2]; rat, in vivo): 2%
ΔBP (change in arterial blood pressure) ([2]; rat, in vivo): 0%
ΔH (change in heart rate) ([2]; rat, in vivo): 0%
ED50 ([2]; rat, intravenous dose causing 50% neuromuscular block): 0.133 mg/kg
RI (recovery index) ([2]; rat): 0.4 min
Onset ([2]; rat): 0.5 min
ΔBP (change in arterial blood pressure) (anesthetized monkeys; in vivo): 0%
ΔH (change in heart rate) (anesthetized monkeys; in vivo): 0%
ED50 (anesthetized monkeys): 0.086 mg/kg
RI (recovery index) (anesthetized monkeys): 0.4 min
Onset (anesthetized monkeys): 0.7 min
ΔBP (change in arterial blood pressure) (dogs; in vivo): −5%
ΔH (change in heart rate) (dogs; in vivo): 27%
ED50 (dogs): 0.15 mg/kg
RI (recovery index) (dogs): 0.7 min
Onset (dogs): 0.75 min
ΔBP (change in arterial blood pressure) (rabbits; in vivo): 0%
ΔH (change in heart rate) (rabbits; in vivo): 0%
ED50 (rabbits): 0.115 mg/kg
RI (recovery index) (rabbits): 0.6 min
Onset (rabbits): 0.6 min
ED50 ([3]; cat, intravenous dose causing 50% neuromuscular block): 0.4 mg/kg
RI (recovery index) ([3]; cat): 0.5 min
Onset ([3]; cat): 0.6 min
ΔBP (change in arterial blood pressure) ([3]; in vivo): 0%
ΔH (change in heart rate) ([3]; in vivo): 0%

CC(=O)Oc1ccc(C[N+]2(C)[C@@H]3CC[C@H]2C[C@@H](OC(=O)CCCC(=O)O[C@H]2C[C@H]4CC[C@@H](C2)[N+]4(C)Cc2ccc(OC(C)=O)c(OC(C)=O)c2)C3)cc1OC(C)=O.[Br-].[Br-] (stereo partly drawn) [bis[N-(3,4-diacetoxybenzyl)tropanium-3α-yl]glutarate dibromide]
ED50 ([1]; Sus scrofa, read-out: ED50): 0.23 mg/kg
VB (vagal block) [1, 5]: 41%
ΔBP (change in arterial blood pressure) [1, 5]: 0%
ΔH (change in heart rate) [1, 5]: 0%
RI (recovery index) [1]: 1.1 min
Onset [1]: 0.95 min
ED50 ([2]; Rattus norvegicus, iv): 0.232 mg/kg
VB (vagal block) [2, 6]: 10%
ΔBP (change in arterial blood pressure) [2, 6]: 0%
ΔH (change in heart rate) [2, 6]: 0%
RI (recovery index) ([2]; rat): 0.6 min
Onset ([2]; rat): 0.75 min
ED50 (anesthetized monkeys; Primates, read-out: ED50): 0.088 mg/kg
ΔBP (change in arterial blood pressure) (anesthetized monkeys; [5]): 0%
ΔH (change in heart rate) (anesthetized monkeys; [5]): 0%
RI (recovery index) (anesthetized monkeys): 0.8 min
Onset (anesthetized monkeys): 1 min
ED50 (dogs; [7]): 0.11 mg/kg
ΔBP (change in arterial blood pressure) (dogs; [5]): 0%
ΔH (change in heart rate) (dogs; [5]): 0%
RI (recovery index) (dogs): 0.6 min
Onset (dogs): 0.9 min
ED50 (rabbits; [8]): 0.065 mg/kg
ΔBP (change in arterial blood pressure) (rabbits; [5]): 0%
ΔH (change in heart rate) (rabbits; [5]): 0%
RI (recovery index) (rabbits): 0.7 min
Onset (rabbits): 0.9 min
ED50 ([3]; Felis catus, iv): 0.183 mg/kg
VB (vagal block) [3, 9]: 8%
ΔBP (change in arterial blood pressure) [3, 9]: 0%
ΔH (change in heart rate) [3, 9]: 0%
RI (recovery index) ([3]; cat): 0.6 min
Onset ([3]; cat): 1 min

CC(=O)Oc1ccc(C[N+]2(C)[C@@H]3CC[C@H]2C[C@@H](OC(=O)C2CCC2C(=O)O[C@H]2C[C@H]4CC[C@@H](C2)[N+]4(C)Cc2ccc(OC(C)=O)c(OC(C)=O)c2)C3)cc1OC(C)=O.[Br-].[Br-] (stereo partly drawn) [bis[N-(3,4-diacetoxybenzyl)tropanium-3α-yl]cyclobutane-1,2-dicarboxylate dibromide]
ED50 ([1]; Sus scrofa, read-out: ED50): 0.275 mg/kg
VB (vagal block) [1, 5]: 42%
ΔBP (change in arterial blood pressure) [1, 5]: 0%
ΔH (change in heart rate) [1, 5]: 0%
RI (recovery index) [1]: 0.85 min
Onset [1]: 0.68 min
ED50 ([2]; Rattus norvegicus, iv): 0.218 mg/kg
VB (vagal block) [2, 6]: 5%
ΔBP (change in arterial blood pressure) [2, 6]: 0%
ΔH (change in heart rate) [2, 6]: 0%
RI (recovery index) ([2]; rat): 0.45 min
Onset ([2]; rat): 0.7 min
ED50 (anesthetized monkeys; Primates, read-out: ED50): 0.054 mg/kg
ΔBP (change in arterial blood pressure) (anesthetized monkeys; [5]): 0%
ΔH (change in heart rate) (anesthetized monkeys; [5]): 0%
RI (recovery index) (anesthetized monkeys): 0.4 min
Onset (anesthetized monkeys): 0.95 min
ED50 (dogs; [7]): 0.1 mg/kg
ΔBP (change in arterial blood pressure) (dogs; [5]): −7%
ΔH (change in heart rate) (dogs; [5]): 10%
RI (recovery index) (dogs): 0.65 min
Onset (dogs): 0.9 min
ED50 (rabbits; [8]): 0.078 mg/kg
ΔBP (change in arterial blood pressure) (rabbits; [5]): 0%
ΔH (change in heart rate) (rabbits; [5]): 0%
RI (recovery index) (rabbits): 0.6 min
Onset (rabbits): 0.8 min
ED50 ([3]; Felis catus, iv): 0.135 mg/kg
VB (vagal block) [3, 9]: 12%
ΔBP (change in arterial blood pressure) [3, 9]: 0%
ΔH (change in heart rate) [3, 9]: 0%
RI (recovery index) ([3]; cat): 0.5 min
Onset ([3]; cat): 0.95 min

Bis[N-(3,4-dipropionyloxybenzyl)-6-azabicyclo[3.2.1]octanium-3-yl]glutarate dibromide
% VB at ED80 nmb (vagal block) [4]: 63 (7) %
BP (change in arterial blood pressure) [4]: +8 (2) %
HR (change in heart rate) [4]: 0%
ED50 [4]: 1002 (174) μg/kg
RI (recovery index) [4]: 0.47 (0.03) min
Onset [4]: 0.5 (0.03) min

Bis[N-(3,4-diacetoxybenzyl)-6-azabicyclo[3.2.1]octanium-3-yl]glutarate dibromide
% VB at ED80 nmb (vagal block) [4]: 19 (4) %
BP (change in arterial blood pressure) [4]: 0%
HR (change in heart rate) [4]: 0%
ED50 [4]: 440 (39) μg/kg
RI (recovery index) [4]: 0.4 (0.05) min
Onset [4]: 0.55 (0.05) min

Bis[4-dimethylaminocyclohexyl]fumarate bis(4-acetoxy-3-methoxybenzyl bromide)
ED50 [4]: 2138 (128) μg/kg
RI (recovery index) [4]: 0.65 (0.05) min
Onset [4]: 1.3 (0.05) min
